Measured values taken from the supplement of paper PMC10307832.

How the values were obtained:
Assay in all cases: relative viability (nuclei count vs DMSO), 5 days (fraction); higher = more cells survive
QS11 + Lapatinib = compound: C1CC2=C(C1)C=C(C=C2)OC3=NC(=C4C(=N3)N(C=N4)CC5=CC=C(C=C5)C6=CC=CC=C6)N[C@@H](CC7=CC=CC=C7)CO [QS11] + CS(=O)(=O)CCNCc1ccc(-c2ccc3ncnc(Nc4ccc(OCc5cccc(F)c5)c(Cl)c4)c3c2)o1 [Lapatinib] (partner 2 µM)
In short: (§1)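 Lung cancer cell lines in 1536-well plates got either a single drug or a fixed anchor-drug dose together with five library-drug doses (not always all listed) in √10 steps, by pin tool, on the day after seeding. Nuclei were counted after 5 days, and relative viability is the treated-to-vehicle ratio of nuclei counts. Values are medians of duplicate plates.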

[1] = compound: C[As](C)SC[C@H](NC(=O)CC[C@H](N)C(=O)O)C(=O)NCC(=O)O [Darinaparsin] + CC(=O)Nc1cccc(-n2c(=O)n(C3CC3)c(=O)c3c(Nc4ccc(I)cc4F)n(C)c(=O)c(C)c32)c1 [Trametinib] (partner 0.02 µM)
In short: as §1

[2] = compound: C[As](C)SC[C@H](NC(=O)CC[C@H](N)C(=O)O)C(=O)NCC(=O)O [Darinaparsin] + CC(=O)c1c(C)c2cnc(Nc3ccc(N4CCNCC4)cn3)nc2n(C2CCCC2)c1=O [Palbociclib] (partner 0.5 µM)
In short: as §1

[3] = compound: C[As](C)SC[C@H](NC(=O)CC[C@H](N)C(=O)O)C(=O)NCC(=O)O [Darinaparsin] + C[C@@H](Oc1cc(-c2cnn(C3CCNCC3)c2)cnc1N)c1c(Cl)ccc(F)c1Cl [Crizotinib] (partner 1 µM)
In short: as §1

Cell Line	relative viability (QS11 + Lapatinib; first compound 0.08 µM)	relative viability (QS11 + Lapatinib; first compound 0.253 µM)	relative viability (QS11 + Lapatinib; first compound 0.8 µM)	relative viability (QS11 + Lapatinib; first compound 2.53 µM)	relative viability (QS11 + Lapatinib; first compound 8 µM)	relative viability ([1]; first compound 0.08 µM)	relative viability ([1]; first compound 0.8 µM)	relative viability ([1]; first compound 8 µM)	relative viability ([2]; first compound 0.08 µM)	relative viability ([2]; first compound 0.8 µM)	relative viability ([2]; first compound 8 µM)	relative viability ([1]; first compound 2.53 µM)	relative viability ([3]; first compound 0.08 µM)	relative viability ([3]; first compound 0.8 µM)	relative viability ([3]; first compound 2.53 µM)	relative viability ([3]; first compound 8 µM)	relative viability ([2]; first compound 2.53 µM)
NCI-H1793	0.807	0.659	0.802	0.925	1.1	0.427	0.482	0.526	0.359	0.374	0.369	–	–	–	–	–	–
HARA	0.675	0.643	–	0.708	0.751	0.825	–	0.638	0.25	0.257	0.29	0.733	1.46	1.05	0.783	1.27	0.21
NCI-H2347	0.867	0.93	0.795	0.859	1.02	0.249	0.266	0.242	0.43	0.404	0.4	0.307	0.709	0.703	0.747	0.696	0.447
ABC-1	1.18	1.44	1.16	1.16	1.47	–	–	–	0.879	0.6	0.729	–	1.21	1.16	0.875	1.29	0.744
NCI-H2342	–	–	–	–	–	0.966	0.843	0.73	0.539	0.527	0.538	0.789	–	–	–	–	0.493
NCI-H2126	0.792	0.698	0.727	0.802	0.717	0.629	0.563	0.542	0.371	0.344	0.334	0.575	1.14	1.01	0.93	1.12	0.352
HOP-62	0.95	1.18	0.863	0.892	0.983	0.401	0.385	0.428	0.541	0.411	0.593	0.316	1.02	1.05	1.05	1.06	0.385
NCI-H2085	0.714	0.716	0.713	0.861	0.778	0.469	0.477	0.618	0.466	0.482	0.457	0.586	0.936	0.858	0.768	0.9	0.508
NCI-H1944	0.857	0.704	–	0.89	0.598	0.404	0.401	0.408	0.314	0.339	0.404	0.371	1.39	1.1	1.05	1.27	0.31
EMC-BAC-2	0.927	0.89	0.884	0.984	0.89	0.909	0.802	0.887	0.516	0.491	0.54	1.01	0.812	0.772	0.676	0.801	0.515
NCI-H2228	1.12	0.826	1.17	1.54	1.09	0.563	0.382	0.354	0.805	0.881	0.998	0.462	0.613	0.506	0.484	0.512	0.419
A-427	0.881	1.08	–	1.12	1.07	0.721	0.663	0.796	0.585	0.494	0.549	0.758	1.01	0.902	0.777	1.1	0.567
EPLC-272H	1.01	0.855	0.953	0.98	0.871	0.292	0.311	0.305	0.318	0.315	0.292	0.31	1.02	0.529	0.649	0.89	0.333
A549	1.04	1.14	0.621	0.886	0.764	–	–	–	–	–	–	–	1.33	0.891	0.605	0.985	–
NCI-H358	0.41	0.436	0.482	0.703	0.785	0.112	0.129	0.145	0.141	0.128	0.139	0.134	0.566	0.499	0.576	0.673	0.127
NCI-H2009	0.983	0.884	0.634	0.855	0.728	0.283	0.246	0.27	0.208	0.166	0.203	0.196	1.09	0.991	0.953	1.02	0.225
HCC-827	0.176	0.226	0.158	0.243	0.227	0.578	0.502	0.508	0.514	0.519	0.477	0.566	0.959	0.853	0.979	0.965	0.414
NCI-H322M	0.573	0.642	0.559	0.576	0.628	0.525	0.505	0.511	0.478	0.456	0.442	0.495	1.02	1.06	0.753	1.03	0.487
NCI-H1755	1.12	1.02	0.608	0.953	0.833	0.811	0.795	0.844	0.483	0.457	0.469	0.857	1.08	0.827	0.807	1.12	0.46
LU99A	0.83	1.17	1.15	0.963	0.637	0.529	0.62	0.55	0.425	0.438	0.451	0.545	0.626	0.574	0.461	0.593	0.354
HCC-44	1.07	0.936	0.668	0.955	0.888	1.11	1.2	1.1	1.04	0.916	1	0.942	0.875	0.872	0.618	0.929	1.02
EBC-1	0.233	0.198	0.194	0.211	0.207	–	–	–	–	–	–	–	0.196	0.19	0.181	0.166	–
NCI-H647	0.939	1.12	0.916	1.1	0.711	0.537	0.512	0.655	0.467	0.406	0.561	0.385	1.66	1.1	1.16	1.6	0.357

Cell Line	relative viability (QS11 + Lapatinib; first compound 0.08 µM)	relative viability (QS11 + Lapatinib; first compound 0.253 µM)	relative viability (QS11 + Lapatinib; first compound 0.8 µM)	relative viability (QS11 + Lapatinib; first compound 2.53 µM)	relative viability (QS11 + Lapatinib; first compound 8 µM)	relative viability ([1]; first compound 0.08 µM)	relative viability ([1]; first compound 0.8 µM)	relative viability ([1]; first compound 8 µM)	relative viability ([2]; first compound 0.08 µM)	relative viability ([2]; first compound 0.8 µM)	relative viability ([2]; first compound 8 µM)	relative viability ([1]; first compound 2.53 µM)	relative viability ([3]; first compound 0.08 µM)	relative viability ([3]; first compound 0.8 µM)	relative viability ([3]; first compound 2.53 µM)	relative viability ([3]; first compound 8 µM)	relative viability ([2]; first compound 2.53 µM)
NCI-H1734	1.07	0.968	0.921	1.01	0.898	0.724	0.611	0.677	0.35	0.332	0.395	0.655	0.892	0.724	0.686	0.736	0.361
NCI-H1993	0.823	0.962	0.601	0.751	0.882	0.661	0.5	0.589	0.586	0.743	0.68	0.512	0.979	0.834	0.82	0.774	0.59
NCI-H23	1.01	0.988	0.871	0.885	1.1	0.402	0.339	0.409	0.549	0.52	0.479	0.43	0.753	0.428	0.412	0.515	0.51
NCI-H1355	1.08	0.792	0.688	0.997	1.07	0.462	0.403	0.426	0.445	0.398	0.387	0.378	1.13	1.06	0.852	1.18	0.322
NCI-H2170	0.276	0.262	0.246	0.281	0.316	1.17	0.955	1.18	0.427	0.425	0.411	0.926	1.61	1.35	0.953	1.51	0.385
NCI-H2405	0.951	1.02	1.02	1.29	1.07	0.702	0.562	0.668	0.532	0.492	0.606	0.55	0.911	0.787	0.755	0.873	0.473
NCI-H2023	0.809	0.797	0.747	0.773	0.706	0.728	0.557	0.579	0.393	0.333	0.431	0.629	0.745	0.636	0.56	0.754	0.344
PC-3 [JPC-3]	0.464	0.409	0.436	0.5	0.435	0.758	0.737	0.659	0.553	0.516	0.547	0.704	0.976	0.948	0.973	0.849	0.542
LXF-289	0.941	0.909	0.757	0.821	0.739	0.768	0.667	0.697	0.638	0.611	0.562	0.677	0.855	0.814	0.682	0.906	0.488
NCI-H1703	0.986	1.41	1.04	0.974	1.1	–	–	–	–	–	–	–	1.45	0.859	0.483	0.607	–
NCI-H1563	0.988	0.892	1.12	0.972	0.891	–	–	–	–	–	–	–	0.903	0.768	0.87	0.874	–
NCI-H596	1	1.02	1.02	1.03	1.05	0.762	0.748	0.755	–	–	–	0.856	1.08	0.999	0.765	0.982	–
Calu-6	1.11	1.07	0.969	1.31	1.12	–	–	–	–	–	–	–	1.17	0.857	0.665	0.751	–
SW 900	–	–	–	–	–	0.73	–	0.985	0.55	–	0.655	0.813	–	–	–	–	0.59
NCI-H1299	1.02	0.933	0.807	0.917	0.712	–	–	–	–	–	–	–	1.09	0.981	0.871	1.1	–
NCI-H522	–	–	–	–	–	0.704	0.888	0.816	1.11	1.01	1.03	0.682	–	–	–	–	0.957
ChaGo-K-1	–	–	–	–	–	0.914	0.862	0.984	0.95	0.958	1.06	0.785	1.38	1.14	0.924	1.1	0.856
LCLC-103H	–	–	–	–	–	0.69	0.659	0.765	0.49	0.427	0.533	0.675	1.12	1.04	0.979	1.03	0.49
NCI-H1648	–	–	–	–	–	–	0.445	0.408	–	0.242	0.243	–	–	–	–	–	–
NCI-H1395	–	0.98	0.992	1.14	0.977	1.24	0.954	0.94	0.617	0.54	0.646	0.957	–	–	–	–	0.54
NCI-H441	–	–	–	–	–	0.507	0.471	0.295	0.264	0.214	0.188	0.429	0.956	0.729	0.676	0.701	0.21
IA-LM	1.13	1.02	0.513	0.589	0.596	–	–	–	–	–	–	–	1.06	0.645	0.788	0.923	–
